The target of assay [1] is T1, PARP7 (Homo sapiens, UniProt Q7Z3E1).
T1 construct: purchased BPS 80527
T1 sequence (Q7Z3E1 1-657): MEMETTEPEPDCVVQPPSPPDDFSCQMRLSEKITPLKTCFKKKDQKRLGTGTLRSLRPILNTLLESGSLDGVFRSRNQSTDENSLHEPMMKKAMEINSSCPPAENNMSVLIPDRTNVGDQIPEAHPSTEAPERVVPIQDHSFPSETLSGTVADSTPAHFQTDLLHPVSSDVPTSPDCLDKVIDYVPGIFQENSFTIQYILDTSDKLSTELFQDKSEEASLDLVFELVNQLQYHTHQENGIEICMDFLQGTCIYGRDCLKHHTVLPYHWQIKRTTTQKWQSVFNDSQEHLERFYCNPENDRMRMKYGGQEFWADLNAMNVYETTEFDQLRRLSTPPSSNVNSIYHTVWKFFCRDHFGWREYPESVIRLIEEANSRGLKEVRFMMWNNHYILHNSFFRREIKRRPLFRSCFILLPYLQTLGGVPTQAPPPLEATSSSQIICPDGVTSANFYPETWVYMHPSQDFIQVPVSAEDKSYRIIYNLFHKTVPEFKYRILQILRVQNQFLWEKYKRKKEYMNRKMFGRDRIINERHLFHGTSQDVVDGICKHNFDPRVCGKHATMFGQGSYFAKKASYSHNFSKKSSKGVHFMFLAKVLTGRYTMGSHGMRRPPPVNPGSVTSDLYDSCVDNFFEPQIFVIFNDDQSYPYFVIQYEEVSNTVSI
As to the kind of experiment: Test of inhibitory activity against PARP7 enzyme (PARP7 FLAG-tag, Probe A, time-resolved fluorescence). It is filed as biochemical. The following applies: PARP7 12 nM, Probe A 2 nM, 1 hr room temperature.

For assay [2], the system named is NCI-H1373 cells. Nature of the assay: Cell proliferation inhibition assay (CTG method). It is filed as cell-based, human. The settings on record: read-out: IC50 (nM) for NCI-H1373 cell viability.
Where [3] appears, read: Homo sapiens, NCI-H1373, 144 h, NCI-H1373 cells, 6 days incubation, CTG method.
The mark [4] stands for this setting: NCI-H1373 cells, 6 days incubation, CTG method.

Like-named read-outs stand apart in the source and are kept apart here.

This note sets out measurements from patent US20240166664A1, “TRIHETEROCYCLIC COMPOUND, PREPARATION METHOD THEREFOR, AND APPLICATION THEREOF” (SHANGHAI APEIRON THERAPEUTICS COMPANY LIMITED, priority 2021, published 2024).

As to `C[C@@H](COCCC(=O)N1CCN2c3ncc(C(F)(F)F)cc3CC[C@H]2C1)Nc1cn[nH]c(=O)c1C(F)(F)F` (single isomer, unassigned) [Compound 45], the half-inhibitory concentration (IC50) in assay [1] was less than 10 nM; in assay [2] (setting [3]) it was less than 100 nM.

With `C[C@@H](COCCC(=O)N1CCN2c3ncc(C(F)(F)F)cc3CC[C@@H]2C1)Nc1cn[nH]c(=O)c1C(F)(F)F` (single isomer, unassigned) [Compound 46], the IC50 is less than 10 nM in assay [1] and 100 to 500 nM in assay [2] (setting [3]).

Regarding `CC(COCC(O)C(=O)N1CCN2c3ncc(C(F)(F)F)cc3COCC2C1)Nc1cn[nH]c(=O)c1C(F)(F)F` (single isomer, unassigned) [Compound 55], the figures for the IC50 in assay [1] and in assay [2] (setting [3]) were less than 10 nM and less than 100 nM, respectively.

In the case of `CC(COCC(O)C(=O)N1CCN2c3ncc(C(F)(F)F)cc3COCC2C1)Nc1cn[nH]c(=O)c1C(F)(F)F` (single isomer, unassigned) [Compound 56], the values for the half-maximal inhibitory concentration (IC50) in assay [1] and in assay [2] (setting [4]) were less than 10 nM and 100 to 500 nM, respectively.

`C[C@@H](COCCC(=O)N1CCN2c3ncc(C(F)(F)F)cc3C(F)(F)C[C@H]2C1)Nc1cn[nH]c(=O)c1C(F)(F)F` (single isomer, unassigned) [Compound 63]: the IC50 is less than 10 nM in assay [1] and 500 to 5000 nM in assay [2] (setting [3]).

As for `C[C@@H](COCCC(=O)N1CCN2c3ncc(C(F)(F)F)cc3C(F)(F)C[C@@H]2C1)Nc1cn[nH]c(=O)c1C(F)(F)F` (single isomer, unassigned) [Compound 64], the IC50 in assay [1] was less than 10 nM; in assay [2] (setting [3]), 500 to 5000 nM.

Turning to `C[C@@H](COCCC(=O)N1CCN2c3ncc(C(F)(F)F)cc3NC(=O)CC2C1)Nc1cn[nH]c(=O)c1C(F)(F)F` (single isomer, unassigned) [Compound 84], the results for the half-inhibitory concentration (IC50) in assay [1] and in assay [2] (setting [3]) were less than 10 nM and more than 5000 nM, respectively.

For `C[C@H](COCCC(=O)N1CCN2c3ncc(C(F)(F)F)cc3NCC[C@H]2C1)Nc1cn[nH]c(=O)c1C(F)(F)F` (stereo in doubt) [Compound 36, 5-(((R)-1-(3-oxo-3-((S)-3-(trifluoromethyl)-6,7,7a, 8,10,11-hexahydropyrazino[1,2-d]pyrido[3,2-b][1,4]diazepine-9(5H)-yl)propoxy)prop-2-yl)amino)-4-(trifluoromethyl)pyridazin-3(2H)-one], the half-maximal inhibitory concentration (IC50) is less than 10 nM in assay [1] and 500 to 5000 nM in assay [2] (setting [3]).

On to `C[C@@H](COCCC(=O)N1CCN2c3ncc(C(F)(F)F)cc3OC[C@H]2C1)Nc1cn[nH]c(=O)c1C(F)(F)F` [Compound 1, 5-(((S)-1-(3-oxo-3-((R)-3-(trifluoromethyl)-6a, 7,9,10-tetrahydropyrazino[1,2-d]pyrido[3,2-b][1,4]oxazin-8(6H)-yl)propoxy)prop-2-yl)amino)-4-(trifluoromethyl)pyridazin-3(2H)-one], for which the half-maximal inhibitory concentration (IC50) is less than 10 nM in assay [1] and less than 100 nM in assay [2] (setting [3]).

Take `C[C@@H](COCCC(=O)N1CCN2c3ncc(C(F)(F)F)cc3OC[C@@H]2C1)Nc1cn[nH]c(=O)c1C(F)(F)F` [Compound 2, 5-(((S)-1-(3-oxo-3-((S)-3-(trifluoromethyl)-6a, 7,9,10-tetrahydropyrazino[1,2-d]pyrido[3,2-b][1,4]oxazin-8(6H)-yl)propoxy)prop-2-yl)amino)-4-(trifluoromethyl)pyridazin-3(2H)-one]: the values for the concentration for half-maximal inhibition (IC50) in assay [1] and in assay [2] (setting [3]) were less than 10 nM and less than 100 nM, respectively.

`C[C@@H](COCCC(=O)N1CCN2c3ncc(C(F)(F)F)cc3C(=O)OC[C@H]2C1)Nc1cn[nH]c(=O)c1C(F)(F)F` [Compound 3, (R)-9-(3-((S)-2-((6-oxo-5-(trifluoromethyl)-1,6-dihydropyridazin-4-yl)amino)propoxy)propionyl)-3-(trifluoromethyl)-7,7a, 8,9,10,11-hexahydro-5H-pyrazino[2,1-c]pyrido[2,3-e][1,4]oxazin-5-one]: the IC50 in assay [1] was less than 10 nM; in assay [2] (setting [3]), more than 5000 nM.

For `C[C@@H](COCCC(=O)N1CCN2c3ncc(C(F)(F)F)cc3NC(=O)[C@H]2C1)Nc1cn[nH]c(=O)c1C(F)(F)F` [Compound 7, (R)-8-(3-((S)-2-((6-oxo-5-(trifluoromethyl)-1,6-dihydropyridazin-4-yl)amino)propoxy)propionyl)-3-(trifluoromethyl)-7,8,9,10-tetrahydro-5H-pyrazino[1,2-a]pyrido[3,2-e]pyrazin-6(6aH)-one], the IC50 in assay [2] (Homo sapiens, NCI-H1373, 144 h) was in the range of 500 to 5000 nM.

As for `C[C@@H](COCCC(=O)N1CCN2c3ncc(C(F)(F)F)cc3NC(=O)[C@@H]2C1)Nc1cn[nH]c(=O)c1C(F)(F)F` [Compound 8, (S)-8-(3-((S)-2-((6-oxo-5-(trifluoromethyl)-1,6-dihydropyridazin-4-yl)amino)propoxy)propionyl)-3-(trifluoromethyl)-7,8,9,10-tetrahydro-5H-pyrazino[1,2-a]pyrido[3,2-e]pyrazin-6(6aH)-one], in assay [2] (Homo sapiens, NCI-H1373, 144 h), the half-inhibitory concentration (IC50) was 100 to 500 nM.

For `C[C@@H]1CN2c3ncc(C(F)(F)F)cc3OC[C@H]2CN1C(=O)CCOC[C@H](C)Nc1cn[nH]c(=O)c1C(F)(F)F` [Compound 24, 5-(((S)-1-(3-((6aR,9R)-9-methyl-3-(trifluoromethyl)-6a, 7,9,10-tetrahydropyrazino[1,2-d]pyrido[3,2-b][1,4]oxazin-8(6H)-yl)-3-oxypropoxy)prop-2-yl)amino)-4-(trifluoromethyl)pyridazin-3(2H)-one], the IC50 in assay [2] (setting [3]) was in the range of 100 to 500 nM.

Turning to `C[C@@H](COCCC(=O)N1CCN2c3ncc(C(F)(F)F)cc3N(C)C(=O)[C@@H]2C1)Nc1cn[nH]c(=O)c1C(F)(F)F` [Compound 33, (S)-5-methyl-8-(3-((S)-2-((6-oxo-5-(trifluoromethyl)-1,6-dihydropyridazin-4-yl)amino)propoxy)propionyl)-3-(trifluoromethyl)-7,8,9,10-tetrahydro-5H-pyrazino[1,2-a]pyrido[3,2-e]pyrazin-6(6aH)-one], the IC50 in assay [2] (Homo sapiens, NCI-H1373, 144 h) was less than 100 nM.

Regarding `[2H]C([2H])([2H])N1C(=O)[C@@H]2CN(C(=O)CCOC[C@H](C)Nc3cn[nH]c(=O)c3C(F)(F)F)CCN2c2ncc(C(F)(F)F)cc21` [Compound 39, (s)-5-(methyl-D3)-8-(3-((S)-2-((6-oxo-5-(trifluoromethyl)-1,6-dihydropyridazin-4-yl)amino)propoxy)propionyl)-3-(trifluoromethyl)-7,8,9,10-tetrahydro-5H-pyrazino[1,2-a]pyrido[3,2-e]pyrazino-6(6aH)-one], the IC50 in assay [2] (Homo sapiens, NCI-H1373, 144 h) is less than 100 nM.

For the compound `C[C@@H](COCCC(=O)N1CCN2c3ccc(C(F)(F)F)cc3N(C)C(=O)[C@@H]2C1)Nc1cn[nH]c(=O)c1C(F)(F)F` [Compound 49], the IC50 in assay [2] (setting [3]) is more than 5000 nM.

With `C[C@@H](COCCC(=O)N1CCN2c3ncc(C(F)(F)F)cc3N(C)C(=O)[C@H]2C1)Nc1cn[nH]c(=O)c1C(F)(F)F` [Compound 54, (R)-5-methyl-8-(3-((S)-2-((6-oxo-5-(trifluoromethyl)-1,6-dihydropyridazin-4-yl)amino)propoxy)propionyl)-3-(trifluoromethyl)-7,8,9, 10-tetrahydro-5H-pyrazino[1,2-a]pyrido[3,2-e]pyrazin-6(6aH)-one], the IC50 in assay [2] (Homo sapiens, NCI-H1373, 144 h) is less than 100 nM.

Turning to `CC(COCCC(=O)N1CCN2c3ncc(C(F)(F)F)cc3CN(C)C(=O)C2C1)Nc1cn[nH]c(=O)c1C(F)(F)F` [Compound 57, (R)-6-methyl-9-(3-((S)-2-((6-oxo-5-(trifluoromethyl)-1,6-dihydropyridazin-4-yl)amino)propoxy)propionyl)-3-(trifluoromethyl)-5,6,8,9, 10, 11-hexahydropyrazino[1,2-a]pyrido[3,2-f][1, 4]diazepan-7(7aH)-one], the IC50 in assay [2] (setting [3]) lay within 500 to 5000 nM.

For the compound `C[C@@H](COCCC(=O)N1CCN2c3ncc(C(F)(F)F)c(C(F)F)c3OCC[C@H]2C1)Nc1cn[nH]c(=O)c1C(F)(F)F` [Compound 62, 5-(((S)-1-(3-((S)-4-(difluoromethyl)-3-(trifluoromethyl)-6,7,7a, 8, 10, 11-hexahydro-9H-pyrazino[1,2-d]pyrido[3,2-b][1, 4]oxazepane-9-yl)-3-oxypropoxy)prop-2-yl)amino)-4-(trifluoromethyl)pyridazin-3(2H)-one], the IC50 in assay [2] (setting [3]) is 100 to 500 nM.

For the compound `CC(COCC(O)C(=O)N1CCN2c3ncc(C(F)(F)F)cc3CCC2C1)Nc1cn[nH]c(=O)c1C(F)(F)F` (centres unmarked) [Compound 67], the concentration for half-maximal inhibition (IC50) in assay [2] (setting [3]) was less than 100 nM.

Consider `CC(COCC(O)C(=O)N1CCN2c3ncc(C(F)(F)F)cc3CCC2C1)Nc1cn[nH]c(=O)c1C(F)(F)F` (centres unmarked) [Compound 68], for which, in assay [2] (setting [4]), the IC50 is less than 100 nM.

With `C[C@@H](COCCC(=O)N1CCN2c3ncc(C(F)(F)F)cc3COC[C@H]2C1)Oc1cn[nH]c(=O)c1C(F)(F)F` [Compound 69, 5-(((S)-1-(3-oxo-3-((R)-3-(trifluoromethyl)-7a, 8, 10, 11-tetrahydro-5H-pyrazino[2,1-c]pyrido[2,3-e][1, 4]oxazepane-9(7H)-yl)propoxy)prop-2-yl)oxy)-4-(trifluoromethyl)pyridazin-3(2H)-one], the half-maximal inhibitory concentration (IC50) in assay [2] (setting [3]) was less than 100 nM.

The compound `C[C@@H](COCCC(=O)N1CCN2c3ncc(C(F)(F)F)cc3NC(C)(C)[C@H]2C1)Nc1cn[nH]c(=O)c1C(F)(F)F` [Compound 76] yielded an IC50 in assay [1] of less than 10 nM.

As usually defined, the IC50 is the point on the concentration scale where inhibition reaches its midpoint.
